For data set [1], the target named is T1, Proteinase-activated receptor 2 (Homo sapiens, UniProt P55085).
T1 sequence (P55085 whole entry): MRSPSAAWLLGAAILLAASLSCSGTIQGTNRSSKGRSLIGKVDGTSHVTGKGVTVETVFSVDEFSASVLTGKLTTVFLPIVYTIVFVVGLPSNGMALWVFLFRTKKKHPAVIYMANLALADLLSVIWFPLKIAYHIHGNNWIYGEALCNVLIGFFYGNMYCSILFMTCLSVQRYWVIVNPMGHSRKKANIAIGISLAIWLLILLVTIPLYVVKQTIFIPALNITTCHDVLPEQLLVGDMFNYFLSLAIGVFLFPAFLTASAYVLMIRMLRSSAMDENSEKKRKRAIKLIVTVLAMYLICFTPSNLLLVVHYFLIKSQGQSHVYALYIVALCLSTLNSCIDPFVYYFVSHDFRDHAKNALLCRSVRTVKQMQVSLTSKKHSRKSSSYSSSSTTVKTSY
Kind of data set: Agonist activity at human PAR2 expressed in HEK293T cells assessed as effect on intracellular calcium mobilization by R-SAT assay. The data set is classed as functional, cell-based, HEK-293T.

The target in data set [2] is Proteinase-activated receptor 2 (Homo sapiens) (UniProt P55085). Kind of data set: Agonist activity at human PAR2 expressed in HEK293T cells assessed as effect on intracellular calcium mobilization by R-SAT assay relative to SLIGRL-NH2. Particulars: HEK-293T. The format is functional, cell-based. Background: A change in cytosolic calcium serves as a functional read-out for many receptors and channels.

Data set [3] has the same target. In words: Agonist activity at human PAR2 expressed in HEK293T cells assessed as effect on phosphatidyl inositol hydrolysis. The data set is classed as functional, cell-based. The settings on record: HEK-293T.
For data set [4], the system named is Rattus norvegicus. Kind of data set: Induction of inflammation assessed as incidence of paw edema in intrapaw dosed rat. The data set is classed as functional, organism-based.
Data set [5] deals with Rattus norvegicus. In words: Induction nociception assessed as incidence of thermal hyperalgesia in intrapaw dosed rat. The format is functional, organism-based.
In data set [6] the target is T2, Proteinase-activated receptor 3 (Homo sapiens) (UniProt O00254).
T2 sequence (whole entry): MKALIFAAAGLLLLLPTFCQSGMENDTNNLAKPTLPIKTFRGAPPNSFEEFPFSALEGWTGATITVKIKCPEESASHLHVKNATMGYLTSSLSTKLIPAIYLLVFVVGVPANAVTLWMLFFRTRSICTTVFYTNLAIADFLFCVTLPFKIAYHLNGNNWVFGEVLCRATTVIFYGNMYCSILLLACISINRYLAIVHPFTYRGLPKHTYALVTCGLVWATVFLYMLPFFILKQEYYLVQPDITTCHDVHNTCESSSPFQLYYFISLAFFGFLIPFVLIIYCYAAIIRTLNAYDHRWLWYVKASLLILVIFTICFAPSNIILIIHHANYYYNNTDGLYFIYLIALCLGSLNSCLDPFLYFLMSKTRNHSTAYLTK
Kind of data set: Agonist activity at PAR3. The format is functional.

Data set [7] has as its target T3, Proteinase-activated receptor 1 (Homo sapiens) (UniProt P25116).
T3 sequence (whole entry): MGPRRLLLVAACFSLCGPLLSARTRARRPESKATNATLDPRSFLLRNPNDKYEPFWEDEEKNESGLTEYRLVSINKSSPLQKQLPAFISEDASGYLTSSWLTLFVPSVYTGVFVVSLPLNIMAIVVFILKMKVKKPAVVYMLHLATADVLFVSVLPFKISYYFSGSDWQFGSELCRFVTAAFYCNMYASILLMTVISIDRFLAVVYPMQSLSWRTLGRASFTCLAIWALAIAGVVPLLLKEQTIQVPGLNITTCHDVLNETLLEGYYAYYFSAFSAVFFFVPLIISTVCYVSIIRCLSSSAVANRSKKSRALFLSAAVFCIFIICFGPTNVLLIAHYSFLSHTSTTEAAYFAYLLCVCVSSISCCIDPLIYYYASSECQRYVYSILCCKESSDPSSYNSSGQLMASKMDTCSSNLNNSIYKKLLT
Kind of data set: Agonist activity at PAR1. The data set is classed as functional.

The target in data set [8] is T4, Proteinase-activated receptor 4 (Homo sapiens) (UniProt Q96RI0).
T4 sequence (whole entry): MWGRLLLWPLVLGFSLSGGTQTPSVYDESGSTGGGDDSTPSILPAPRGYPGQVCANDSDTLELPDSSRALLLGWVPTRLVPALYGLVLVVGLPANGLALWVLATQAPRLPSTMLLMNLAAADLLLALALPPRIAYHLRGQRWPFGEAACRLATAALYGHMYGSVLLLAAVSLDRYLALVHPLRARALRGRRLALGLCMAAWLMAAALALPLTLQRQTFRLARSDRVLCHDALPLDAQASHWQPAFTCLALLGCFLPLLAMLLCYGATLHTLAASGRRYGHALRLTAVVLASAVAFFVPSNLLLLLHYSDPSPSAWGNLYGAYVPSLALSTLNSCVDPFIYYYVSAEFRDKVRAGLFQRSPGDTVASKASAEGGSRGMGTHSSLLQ
Kind of data set: Agonist activity at PAR4. The data set is classed as functional.

A short description of data set [9]: Metabolic stability in rat liver microsomes assessed as intrinsic clearance. The format is ADME, Microsome. Background: Microsomes from liver hold many membrane-bound enzymes, among them those of drug oxidation.
Data set [10] is described as follows: Metabolic stability in human liver microsomes assessed as intrinsic clearance. The format is ADME, Microsome.
Data set [11] can be described thus: Solubility in presence of 25% Tween. The data set is classed as physicochemical.

Calls of active or inactive are those of the source. The rule behind the calls is not given here. Square brackets hold non-standard residues; d marks the D form. Peptide text beside a SMILES is read from it. * marks the point of attachment. Orn = NCCC[C@H](N)C(=O)O; 2Furoyl = O=C(c1ccco1)*

`CC[C@H](C)[C@H](NC(=O)[C@H](CC(C)C)NC(=O)c1ccco1)C(=O)NCC(=O)N[C@@H](CCCN=C(N)N)C(=O)N[C@@H](CC(C)C)C(=O)N[C@@H](CCCN)C(N)=O` (2Furoyl-LIGRL[Orn]-NH2): in data set [1], the EC50 is 25.1 nM.

For `C/C(=N\N(C)C(=O)[C@@H]1C(=O)NC[C@H]1c1ccccc1)c1cccc(Br)c1`, in data set [2], the Efficacy stood at 35%. Also, in [1], the EC50 was 6310 nM.

On to `C/C(=N\NC(=O)[C@@H]1C(=O)NC[C@H]1c1ccccc1)c1cccc(Br)c1` (stereo in doubt; (-)-3) [listing 1 of 2 here], for which the EC50 in [1] is greater than 10000 nM.

`C/C(=N\NC(=O)[C@@H]1C(=O)NC[C@H]1c1ccccc1)c1cccc(Br)c1` (stereo in doubt; (-)-3) [listing 2 of 2 here]: the Efficacy in data set [2] was 10%.

As for H-SLIGRL-NH2, the Efficacy in [2] was 100%. Besides, the EC50 in data set [1] is 10000 nM.

As to `C/C(=N\NC(=O)[C@@H]1C(=O)NC[C@H]1c1ccccc1)c1cccc(Br)c1` (stereo in doubt; (+)-3) [listing 1 of 2 here], in [2], the Efficacy came to 91%.

With `CC(C)=CN1C[C@@H](c2ccccc2)[C@H](C(=O)N/N=C(\C)c2cccc(Br)c2)C1=O`, in [2], the Efficacy was 72%. Also, in data set [1], the EC50 was 50.1 nM.

Regarding `C/C(=N\NC(=O)[C@@H]1C(=O)NC[C@H]1c1ccccc1)c1ccc(Br)s1`, in [2], the Efficacy was 49%. The EC50 in data set [1] was 2510 nM.

`C/C(=N\NC(=O)[C@@H]1C(=O)NC[C@H]1c1ccccc1)c1ccc(Br)cc1`: the Efficacy in data set [2] stood at 32%. In addition, the EC50 in data set [1] was 7940 nM.

In the case of `O=C1NC[C@@H](c2ccccc2)[C@@H]1C(=O)N/N=C1\CCc2ccc(Br)cc21`, in [2], the Efficacy worked out at 62%. In addition, the EC50 in data set [1] is 126 nM.

Consider `C/C(=N\NC(=O)[C@@H]1C(=O)NC[C@H]1c1ccccc1)c1cccc(Br)c1` (stereo in doubt; 3) [listing 1 of 2 here], for which, in data set [3], the outcome was Active. The Activity entry in the data set with Rattus norvegicus [4] and in the data set on Rattus norvegicus [5] was “Dose-dependent effect” each time. The Efficacy in [2] came out at 93%. Besides, the result in data set [6], in data set [7] and in data set [8] was inactive.

On to `C/C(=N\NC(=O)C(NC(=O)c1ccccc1)c1n[nH]c(=O)c2ccccc12)c1cccc(Br)c1` (stereo not given), for which the outcome in data set [3] was Active. The Activity entry with Rattus norvegicus [4] and with Rattus norvegicus [5] was “Dose-dependent effect” throughout. In data set [2], the Efficacy came to 81%. Also, the outcome in data set [6], in data set [7] and in data set [8] was inactive. For the same molecule, the EC50 in [1] was 200 nM. Moreover, the values for the microsomal CLint in data set [9] and in data set [10] were 6 µL/min/mg and 19 µL/min/mg, respectively.

On to `C/C(=N\NC(=O)[C@@H]1C(=O)NC[C@H]1c1ccccc1)c1cccs1`, for which the Efficacy in data set [2] is 30%. The EC50 in data set [1] is 6310 nM.

Take `C/C(=N\NC(=O)[C@@H]1C(=O)NC[C@H]1c1cccc(Br)c1)c1cccc(Br)c1`: the Efficacy in [2] worked out at 82%. Also, the EC50 in data set [1] was 25.1 nM.

Consider `CC[C@H](C)[C@H](NC(=O)[C@H](CC(C)C)NC(=O)c1ccco1)C(=O)NCC(=O)N[C@@H](CCCNC(=N)N)C(=O)N[C@@H](CC(C)C)C(=O)N[C@@H](CCCN)C(N)=O` (2Furoyl-LIGRL[Orn]-NH2), for which, in [2], the Efficacy came to 89%.

As to `C/C(=N\NC(=O)[C@@H]1C(=O)NC[C@H]1c1ccccc1)c1cccc(Br)c1` (stereo in doubt; (+)-3) [listing 2 of 2 here], the EC50 in data set [1] is 31.6 nM.

As to `C/C(=N\NC(=O)[C@@H]1C(=O)NC[C@H]1c1ccccc1)c1ccccc1Br`, in [2], the Efficacy turned out to be 11%. The EC50 in data set [1] was 10000 nM.

`C/C(=N\NC(=O)[C@@H]1C(=O)NC[C@H]1c1ccccc1)c1cccc(Br)c1` (stereo in doubt; 3) [listing 2 of 2 here]: the solubility in data set [11] is greater than 2000 µg/mL. In data set [1], the EC50 is 31.6 nM. Also, the microsomal CLint in data set [9] is 37 µL/min/mg; in data set [10], 9 µL/min/mg.

The EC50 is the concentration at which the effect is half-maximal. One may read the microsomal CLint as the capacity of the preparation to metabolise the compound, expressed as a volume cleared per time. As usually defined, the solubility is the concentration that dissolves in the medium under given conditions.

Values taken from ChEMBL document CHEMBL1140059, “Discovery of potent and selective small-molecule PAR-2 agonists” (J Med Chem, 2008).
